Assay results taken from patent US20110092517A1, “Use of PPAR Delta Ligands for the Treatment or Prevention of Inflammation or Energy Metabolism/Production Related Diseases” (Cerenis Therapeutics S.A. & Nippon Chemiphar Co., Ltd., priority 2009, published 2011).
Several values for one entry are separate records, joined by “and”; a condition that tells them apart may be missing. Equal values may be shown once. Read-outs that look alike come from different tables or passages of the source.

What was measured:
[1] = test system: Tibialis-anterior muscle fibers; test: Histochemical staining for succinate dehydrogenase (SDH) of tibialis-anterior muscle, quantification of oxidative fibers; format: in vivo, rat; details: for Biopsis #1 Non-oxydative fibers (pixels) / Biopsis #1 oxydative fibers (% from total pixels) / Biopsis #1 oxydative fibers (pixels) / Biopsis #2 Non-oxydative fibers (pixels) / Biopsis #2 oxydative fibers (% from total pixels) / Biopsis #2 oxydative fibers (pixels): rat tibialis-anterior, individual animals
Method: The muscle fibers on a set of animals that were treated with the compound 1.1 at the doses of 3 or 10 mg/kg once a day for 3 weeks are analyzed. Tibialis-anterior from 3 animals per group were used for both morpho-histology analysis and molecular analysis of specific markers of mitochondrial activities. The histology analysis was preformed on cryosection followed by a histochemical staining for succinate dehydrogenase (SDH) (Luquet S. et al., FASEB J, 2003. 17(15): p. 2299-301). Two biopsies of each muscle samples were generated and analyzed.
The quantification was performed by using Adobe Photoshop software (Lehr et al. Histochem Cytochem, 1997. 45(11): p. 1559-65, J Histochem Cytochem, 1999. 47(1): p. 119-26), and was based on pictures (in TIFF format) obtained from different slides of muscle (Tibialis-Anterior).
For each picture identical areas of about 57000 pixels at similar magnification were selected and the surface occupied by the stained fibers was measured (FIG. 1). The results are expressed as the percentage of the area of highly-stained and moderately-stain fibers from the total area selected. The analysis is performed in a blinded fashion.
Statistical analysis (Prism-Graphpad) was performed using unpaired T-test with: * corresponding to p<0.05 and ** to p<0.01.

mouse PPARγ = target: T1, mouse PPARγ (Mus musculus, UniProt P37238); test: GAL4-PPAR chimera transactivation assay in CV-1 cells at 10% or 0.1% serum (Example 4); format: cell-based; details: read-out: GAL4-chimera (mouse) EC50 (μM) hPPARγ
T1 construct: amino acids 204-505 for m and mm from PPARγ; expressed in transfected cells; host or cells: CV-1
T1 sequence (P37238 204-505): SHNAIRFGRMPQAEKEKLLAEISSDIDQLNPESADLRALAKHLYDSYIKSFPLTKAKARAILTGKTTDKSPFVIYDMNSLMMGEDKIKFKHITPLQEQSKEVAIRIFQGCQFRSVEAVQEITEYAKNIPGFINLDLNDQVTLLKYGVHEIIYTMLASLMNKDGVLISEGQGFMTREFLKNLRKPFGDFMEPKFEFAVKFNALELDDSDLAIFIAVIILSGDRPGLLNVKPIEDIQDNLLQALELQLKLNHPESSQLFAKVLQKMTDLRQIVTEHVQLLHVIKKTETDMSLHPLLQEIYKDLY

rat PPARα = target: T2, rat PPARα (Rattus norvegicus, UniProt P37230); test: as above; format: cell-based; details: read-out: GAL4-chimera (rat) EC50 (μM) hPPARα
T2 construct: expressed in transfected cells; host or cells: CV-1
T2 sequence (P37230 239-466 limits assumed): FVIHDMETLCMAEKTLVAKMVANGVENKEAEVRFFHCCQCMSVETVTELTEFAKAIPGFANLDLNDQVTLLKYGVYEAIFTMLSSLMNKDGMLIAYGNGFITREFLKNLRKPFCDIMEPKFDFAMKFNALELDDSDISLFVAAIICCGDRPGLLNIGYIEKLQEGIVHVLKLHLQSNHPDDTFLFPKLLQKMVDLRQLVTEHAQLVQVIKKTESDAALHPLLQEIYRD

rat PPARγ = target: T3, rat PPARγ (Rattus norvegicus, UniProt O88275); test: as above; format: cell-based; details: read-out: GAL4-chimera (rat) EC50 (μM) hPPARγ
T3 construct: expressed in transfected cells; host or cells: CV-1
T3 sequence (O88275 238-503 limits assumed): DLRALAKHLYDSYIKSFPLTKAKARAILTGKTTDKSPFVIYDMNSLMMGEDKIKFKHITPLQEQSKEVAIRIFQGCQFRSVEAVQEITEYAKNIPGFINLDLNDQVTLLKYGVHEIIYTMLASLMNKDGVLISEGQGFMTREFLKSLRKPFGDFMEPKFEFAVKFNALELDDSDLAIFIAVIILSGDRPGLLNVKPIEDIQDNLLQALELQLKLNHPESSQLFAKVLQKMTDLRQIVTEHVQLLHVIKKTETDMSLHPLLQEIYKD

rat PPARδ = target: T4, rat PPARδ (Rattus norvegicus, UniProt Q62879); test: as above; format: cell-based; details: read-out: GAL4-chimera (rat) EC50 (μM) hPPARδ
T4 construct: expressed in transfected cells; host or cells: CV-1
T4 sequence (Q62879 139-440 limits assumed): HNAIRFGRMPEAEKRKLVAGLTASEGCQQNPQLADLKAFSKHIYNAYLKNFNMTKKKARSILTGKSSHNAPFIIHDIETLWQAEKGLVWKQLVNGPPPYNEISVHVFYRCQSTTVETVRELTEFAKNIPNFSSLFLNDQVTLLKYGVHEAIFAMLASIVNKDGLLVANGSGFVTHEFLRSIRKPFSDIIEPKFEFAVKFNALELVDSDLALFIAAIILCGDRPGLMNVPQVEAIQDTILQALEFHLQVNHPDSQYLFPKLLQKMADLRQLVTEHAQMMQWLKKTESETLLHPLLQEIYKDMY
Method: Assays were performed in triplicate for GAL4-chimeras. Experiments were repeated at least three times.
The EC50 were calculated as previously described.
The transactivation activities of the compound I.1 and GW501516 are measured in rat and mouse transactivation assays at 10% and 0.1% serum (Tables 11 and 12).

[2] = Oral glucose tolerance test after 3 weeks of treatment in WD fed rats; format: in vivo, rat; details: 6 h fasted, oral glucose 2.5 g/kg after 3 weeks
[3] = 3 mg/kg once a day for 3 weeks, listed as COMP.I.1, 3 mg/kg
[4] = 10 mg/kg once a day for 3 weeks
[5] = 10 mg/kg once a day for 3 weeks, listed as COMP.I.1, 10 mg/kg

**Q.** Which “Increase of the number of oxidative fiber in tibialis muscle” value ([1]; WD fed rats, SDH histology, dose not specified) does the source give for `Cc1cc(C(=O)CCc2sc(-c3ccc(C(F)(F)F)cc3)nc2C(C)C)ccc1OCC(=O)O` [compound I.1, 4-[3-[4-Isopropyl-2-[4-(trifluoromethyl)phenyl]-5-thiazolyl]propionyl]-2-methylphenoxyacetic acid] here?
**A.** about 50%

**Q.** What about the “Biopsis #1 Non-oxydative fibers (pixels)” value [1, 3] of the same compound?
**A.** 15343 pixels and 16157 pixels and 27185 pixels

**Q.** And the “Biopsis #1 oxydative fibers (% from total pixels)” value [1, 3]?
**A.** 73.56 % from total pixels and 72.16 % from total pixels and 51.41 % from total pixels

**Q.** And the “Biopsis #1 oxydative fibers (pixels)” value [1, 3]?
**A.** 42685 pixels and 41871 pixels and 28767 pixels

**Q.** What about the “Biopsis #2 Non-oxydative fibers (pixels)” value [1, 3] of the same compound?
**A.** 16208 pixels and 1109 pixels and 16402 pixels

**Q.** What about the “Biopsis #2 oxydative fibers (% from total pixels)” value [1, 3] of the same compound?
**A.** 72.07 % from total pixels and 81.01 % from total pixels and 69.92 % from total pixels

**Q.** And the “Biopsis #2 oxydative fibers (pixels)” value [1, 3]?
**A.** 41820 pixels and 47009 pixels and 38128 pixels

**Q.** And the “Biopsis #2 Non-oxydative fibers (pixels)” value [1, 4]?
**A.** 9243 pixels

**Q.** What about the “Biopsis #2 oxydative fibers (% from total pixels)” value [1, 4] of the same compound?
**A.** 83.06 % from total pixels

**Q.** What about the “Biopsis #2 oxydative fibers (pixels)” value [1, 4] of the same compound?
**A.** 45326 pixels

**Q.** And the “Biopsis #1 Non-oxydative fibers (pixels)” value [1, 5]?
**A.** 18992 pixels and 27170 pixels and 16958 pixels

**Q.** And the “Biopsis #1 oxydative fibers (% from total pixels)” value [1, 5]?
**A.** 68.84 % from total pixels and 52.66 % from total pixels and 70.78 % from total pixels

**Q.** And the “Biopsis #1 oxydative fibers (pixels)” value [1, 5]?
**A.** 35030 pixels and 30218 pixels and 41070 pixels

**Q.** And the EC50 (mouse PPARγ; 0.1% serum)?
**A.** > 10 µM

**Q.** And the EC50 (mouse PPARγ; 10% serum)?
**A.** > 10 µM

**Q.** What about the EC50 (rat PPARα; 0.1% serum) of the same compound?
**A.** > 10 µM

**Q.** What about the EC50 (rat PPARα; 10% serum) of the same compound?
**A.** > 10 µM

**Q.** And the EC50 (rat PPARγ; 0.1% serum)?
**A.** > 10 µM

**Q.** What about the EC50 (rat PPARγ; 10% serum) of the same compound?
**A.** > 10 µM

**Q.** What about the EC50 (rat PPARδ; 0.1% serum) of the same compound?
**A.** 0.118 ± 0.031 µM

**Q.** What about the EC50 (rat PPARδ; 10% serum) of the same compound?
**A.** 0.692 ± 0.177 µM

**Q.** And the “Glucose tolerance (OGTT, AUC, glycemia variation)” value ([2]; compound I.1 3 mg/kg)?
**A.** slight tendency to improve glucose tolerance

**Q.** What about the “Glucose tolerance (OGTT, AUC, glycemia variation)” value ([2]; pioglitazone 10, metformin 50, GW501516 10, compound I.1 10 mg/kg) of the same compound?
**A.** significantly improved glucose tolerance
